Measured values as given in publication PMC8294009, “Genetically-encoded discovery of proteolytically stable bicyclic inhibitors for morphogen NODAL” (Chemical Science, 2021).
*1 amine or outer side, *2 acyl side, *3 side chain or, on linkers, in order; H or OH if unused. Where a SMILES comes first, the peptide text is derived from it. Bridges are numbered along the chain shown (N, C = ends). S(p-C6F4)2 = Fc1c(F)c([*:1])c(F)c(F)c1Sc1c(F)c(F)c([*:2])c(F)c1F; X1 = O=C(C=NOCCCCCCOc1cc(C[*:2])cc(C[*:3])c1)[*:1]; X2 = O=C(C=NOCc1cc(C[*:2])cc(C[*:3])c1)[*:1]; mXylylene = c1cc(C[*:1])cc(C[*:2])c1

Test system: not listed separately
Assay: in vitro
Conditions: Streptomyces griseus, isolated enzyme pronase, pH 7.4
Procedure: (§1) In a 600 L Eppendorf tube, we combined 196 L PBS (pH 7.4), 2 L of corresponding peptide
(§2) solution (from 10 mM stock) and 2 L of 0.1 mg/mL PronaseTM. The mixture was vortexed and
(§3) incubated at 37 °C. At indicated time points, 10 L of the solution was sampled, quenched with
(§4) 190 L of 50% aq. CH3CN and maintained at 4 °C until analysis by LCMS.
Compound `CC(C)C[C@@H]1NC(=O)[C@H](Cc2ccc(O)cc2)NC(=O)[C@@H]2CSCc3cc(cc(c3)OCCCCCCON=CC(=O)N[C@@H](Cc3c[nH]c4ccccc34)C(=O)N[C@@H](CC(=O)O)C(=O)N[C@@H](Cc3ccc(O)cc3)C(=O)N[C@@H](CCCNC(=N)N)C(=O)N[C@@H](CCC(=O)O)C(=O)N2)CSC[C@@H](C(N)=O)NC(=O)[C@H](CCC(=O)O)NC1=O` [TSL-6-SWDYRECYLEC] (WDYRECYLEC-NH2; linker N-6-10 via X1) has a remaining at 5 h, 100 µM of 68 ± 14%.

Test system: TYK-nu-NODAL cells
Assay: not given
Type: cell-based
Conditions: human, 72 h, 10 µM
Procedure: 3.9. General protocol P19 Cell Culture
P19 Cell were obtained from ATCC cell bank and culture in Alpha Minimum Essential Medium with ribonucleotide and […] with 7.5% bovine calf serum and 2.5% fetal bovine serum at 37 °C with 5% CO2 supplementation.
3.10. Inhibition of pSMAD assay with P19 Cell […]
TYK-nu ovarian cancer cells were obtained from JCRB cell bank and cultured in Eagle’s minimal essential medium with 10 % fetal calf serum (Gibco/Thermo Fisher; Waltham, Massachusetts, USA) at 37 °C with 5% CO2 supplementation. To express the constitutive NODAL, a plasmid vector for human NODAL open reading frame (not including the stop codon) was cloned into pCMV6-Entry vector in frame with a tandem MYCDYK (FLAG) tag (Origene Cat. # RC211302). […]
Cells were seeded in three 96 wells plates with 600 cells/well or 6000 cells/well and grow in full media with G418 at 100 μg/mL O/N. The next day the media was changed to contain 19d peptide (10 µM, 1 µM and 0.1 µM) and without G418. Cells viability was measured every 24 hours with CellTiter-Glo® Luminescent Cell Viability Assay (Promega Cat. # G7572) over the course of 72
In the case of `C[C@@H]1NC(=O)[C@H](CCCNC(=N)N)NC(=O)[C@H](CCCCN)NC(=O)[C@@H]2CSCc3cc(cc(c3)OCCCCCCON=CC(=O)N[C@@H](Cc3ccc(O)cc3)C(=O)N2)CSC[C@@H](C(N)=O)NC(=O)[C@H](CC(N)=O)NC(=O)[C@H](CCCCN)NC(=O)[C@H](Cc2c[nH]cn2)NC1=O` [19b, TSL-[S]Y[C]KRAHKN[C]] (YCKRAHKNC-NH2; linker N-2-9 via X1), the “viability of TYK-nu-NODAL cells compared to untreated TYK-nu-NODAL cells” value is reported as 23%.

Test system: not listed separately
Assay: in vitro
Type: in vitro ADME
Conditions: mouse, serum
Procedure: 4. Proteolytic Stability Methods
4.1. Protocol for measurement of proteolytic stability in cell assay: […]
precipitate any proteins.
4.2. Protocol for measurement of proteolytic stability in PronaseTM :
The mixture was vortexed and […]
peptide solution (from 10 mM stock). The mixture was vortexed and incubated at 37 °C. At […]
precipitate the serum protein.
`C[C@@H]1NC(=O)[C@H](CCCNC(=N)N)NC(=O)[C@H](CCCCN)NC(=O)[C@@H]2CSCc3cc(cc(c3)OCCCCCCON=CC(=O)N[C@@H](Cc3ccc(O)cc3)C(=O)N2)CSC[C@@H](C(N)=O)NC(=O)[C@H](CC(N)=O)NC(=O)[C@H](CCCCN)NC(=O)[C@H](Cc2c[nH]cn2)NC1=O` [19b, TSL-[S]Y[C]KRAHKN[C]] (YCKRAHKNC-NH2; linker N-2-9 via X1) showed a remaining at 72 h of 53%.

Test system: not given
Assay: not given
Conditions: crosslinker bond; DBMB
Compound H-SYCKRAHKNC-NH2 + DBMB has a ring closure, isolated yield of 32%. H-SPCKAGTGQC-NH2 + DBMB gave a ring closure, isolated yield of 12%. H-SYCKPFC-NH2 + DBMB showed a ring closure, isolated yield of 62%. In the case of H-SSWPARCLHQDLC-NH2 + DBMB, the ring closure, isolated yield is reported as 46%. H-STCQGECGGG-NH2 + DBMB gave a ring closure, isolated yield of 19%. In the case of H-SHDCYLEC-NH2 + DBMB, the ring closure, isolated yield is reported as 27%. With H-SICRFFCGGG-NH2 + DBMB the ring closure, isolated yield was 46%. H-SHCVWWDC-NH2 + DBMB showed a ring closure, isolated yield of 16%. With H-SWDYRECYLEC-NH2 + DBMB the ring closure, isolated yield was 12%. For H-SFCDWYGC-NH2 + DBMB, the ring closure, isolated yield was 10%. With H-SQCKRAHAEC-NH2 + DBMB the ring closure, isolated yield was 10%. Work on H-SPCKGRHHNC-NH2 + DBMB yielded a ring closure, isolated yield of 63%. Work on H-SPCAKGMNYC-NH2 + DBMB yielded a ring closure, isolated yield of 25%. Work on H-SYCKADC-NH2 + DBMB yielded a ring closure, isolated yield of 47%. Compound H-SPCKGPSATC-NH2 + DBMB has a ring closure, isolated yield of 10%. In the case of H-SHCDYYC-NH2 + DBMB, the ring closure, isolated yield is reported as 47%.

Same assay, conditions: crosslinker bond; PFS
For H-STCQGECGGG-NH2 + PFS, the ring closure, isolated yield was 31%. For H-SICRFFCGGG-NH2 + PFS, the ring closure, isolated yield was 40%.

Same assay, conditions: crosslinker bond; TBMB
Ac-CNTWNPWCPWDAPLCam-NH2 + TBMB showed a ring closure, isolated yield of 38%. For Ac-CSWPARCLHQDLC-NH2 + TBMB, the ring closure, isolated yield was 33%.

Same assay, conditions: crosslinker bond; TSL-1
Work on H-SYCKADC-NH2 + TSL-1 yielded a ring closure, isolated yield of 37%. With H-SYCKPFC-NH2 + TSL-1 the ring closure, isolated yield was 41%. With H-SWDYRECYLEC-NH2 + TSL-1 the ring closure, isolated yield was 54%.

Same assay, conditions: crosslinker bond; TSL-6
Work on H-SYCPYSGTNC-NH2 + TSL-6 yielded a ring closure, isolated yield of 32%. Work on H-SWDYRECYLEC-NH2 + TSL-6 yielded a ring closure, isolated yield of 42%. With H-SYCKRAHKNC-NH2 + TSL-6 the ring closure, isolated yield was 14%.

Test system: not listed separately
Assay: Proteolytic stability in Pronase
Conditions: Streptomyces griseus, Pronase (protease mixture) in PBS, pH 7.4
Procedure: as §1, §2, §3, §4
`CC(C)C[C@@H]1NC(=O)[C@H](Cc2ccc(O)cc2)NC(=O)[C@@H](NC(=O)[C@H](CC(=O)O)NC(=O)[C@H](Cc2c[nH]cn2)NC(=O)[C@@H](N)CO)CSCc2cccc(c2)CSC[C@@H](C(N)=O)NC(=O)[C@H](CCC(=O)O)NC1=O` [6g] (H-SHDCYLEC-NH2; linker 4-8 via mXylylene) showed a remaining at 5 h, 100 µM of less than 1%. `CC(C)C[C@@H]1NC(=O)[C@H](Cc2ccc(O)cc2)NC(=O)[C@@H]2CSCc3cc(cc(c3)CSC[C@@H](C(N)=O)NC(=O)[C@H](CCC(=O)O)NC1=O)CON=CC(=O)N[C@@H](Cc1c[nH]c3ccccc13)C(=O)N[C@@H](CC(=O)O)C(=O)N[C@@H](Cc1ccc(O)cc1)C(=O)N[C@@H](CCCNC(=N)N)C(=O)N[C@@H](CCC(=O)O)C(=O)N2` [TSL-1-SWDYRECYLEC] (WDYRECYLEC-NH2; linker N-6-10 via X2) showed a remaining at 5 h, 100 µM of 82 ± 13%. Compound `CC(C)C[C@@H]1NC(=O)[C@H](Cc2ccc(O)cc2)NC(=O)[C@@H]2CSCc3cc(cc(c3)CSC[C@@H](C(N)=O)NC(=O)[C@H](CCC(=O)O)NC1=O)CON=CC(=O)N[C@@H](Cc1c[nH]cn1)C(=O)N[C@@H](CC(=O)O)C(=O)N2` [6c] (HDCYLEC-NH2; linker N-3-7 via X2) has a remaining at 5 h, 100 µM of 83 ± 6.9%. Work on `CC(C)C[C@@H]1NC(=O)[C@H](Cc2ccc(O)cc2)NC(=O)[C@@H](NC(=O)[C@H](CC(=O)O)NC(=O)[C@H](Cc2c[nH]cn2)NC(=O)[C@@H](N)CO)CSSC[C@@H](C(N)=O)NC(=O)[C@H](CCC(=O)O)NC1=O` [6a] (H-SHDCYLEC-NH2; disulfide 4-8) yielded a remaining at 5 h, 100 µM of less than 1%.

Test system: Pronase™
Assay: Proteolytic stability in Pronase
Conditions: 5 hours, 37 °C
Procedure: as §1, §2, §3, §4
For `CC[C@H](C)[C@H](NC(=O)[C@@H](N)CO)C(=O)N[C@H]1CSc2c(F)c(F)c(c(F)c2F)Sc2c(F)c(F)c(c(F)c2F)SC[C@@H](C(=O)NCC(=O)NCC(=O)NCC(N)=O)NC(=O)[C@H](Cc2ccccc2)NC(=O)[C@H](Cc2ccccc2)NC(=O)[C@H](CCCNC(=N)N)NC1=O` [PFS-SICRFFCGGG] (H-SICRFFCGGG-NH2; linker 3-7 via S(p-C6F4)2), the “stability in Pronase™ (in words)” value was “lower stability than bicycle TSL-3-SICRFFCGGG”.

Test system: rhNODAL-induced phosphorylation of SMAD2 in P19 cells
Assay: Inhibition of pSMAD assay with P19 cells (western blot of p-SMAD2)
Type: cell-based
Conditions: control inhibitor, concentration not given, rhNODAL 100 ng mL^−1, 1 hour
Source text: 3.6. Processing of Illumina data
The Gzip compressed FASTQ files were downloaded from BaseSpace™ Sequence Hub. The files were converted into tables of DNA sequences and their counts per experiment. Briefly, FASTQ files were parsed based on unique multiplexing barcodes within the reads discarding any reads that contained a low-quality score. Mapping the forward (F) and reverse […] barcoding regions, mapping of F and R priming regions allowing no more than one base substitution each and F-R read alignment allowing no mismatches between F and R reads yielded DNA sequences located between the priming regions. The files with DNA reads, raw counts, and mapped peptide modifications were uploaded to http://48hd.cloud/ server. Each experiment has a unique alphanumeric name (e.g., 20181108-16TSooPA-YW) and unique static URL:
Un- http://48hd.cloud/file/23 https://48hd.cloud/file/2 https://48hd.cloud/file/2 […]
TSL-6 https://48hd.cloud/file/2 https://48hd.cloud/file/2 https://48hd.cloud/file/2 […]
Elution https://48hd.cloud/file/2 https://48hd.cloud/file/2 https://48hd.cloud/file/2 […]
Amplificati https://48hd.cloud/file/2 https://48hd.cloud/file/2 https://48hd.cloud/file/2 […]
3.7. General protocol for protein extraction
All samples in the protein extraction protocol were done on ice. […]
For `NC(=O)c1ccc(-c2nc(-c3ccc4c(c3)OCO4)c(-c3ccccn3)[nH]2)cc1` [SB431542], the “inhibition of rhNODAL-induced phosphorylation of SMAD2” value was “inhibited”.
